Experimental data taken from ChEMBL document CHEMBL4118122, “Identification and biological evaluation of thiazole-based inverse agonists of RORγt” (Bioorg Med Chem Lett, 2018).
pIC50: −log10 of the molar value.

Legend:
[1] = target: T1, Nuclear receptor ROR-beta (Homo sapiens, UniProt Q92753); experiment: Inverse agonist activity at human GAL4 DBD-fused RORbeta LBD (201 to 452 residues) expressed in HEK293T cells assessed as reduction in ROR mediated transcriptional activity after 24 hrs by dual glo luciferase reporter gene assay; format: cell-based
T1 sequence (Q92753 whole entry): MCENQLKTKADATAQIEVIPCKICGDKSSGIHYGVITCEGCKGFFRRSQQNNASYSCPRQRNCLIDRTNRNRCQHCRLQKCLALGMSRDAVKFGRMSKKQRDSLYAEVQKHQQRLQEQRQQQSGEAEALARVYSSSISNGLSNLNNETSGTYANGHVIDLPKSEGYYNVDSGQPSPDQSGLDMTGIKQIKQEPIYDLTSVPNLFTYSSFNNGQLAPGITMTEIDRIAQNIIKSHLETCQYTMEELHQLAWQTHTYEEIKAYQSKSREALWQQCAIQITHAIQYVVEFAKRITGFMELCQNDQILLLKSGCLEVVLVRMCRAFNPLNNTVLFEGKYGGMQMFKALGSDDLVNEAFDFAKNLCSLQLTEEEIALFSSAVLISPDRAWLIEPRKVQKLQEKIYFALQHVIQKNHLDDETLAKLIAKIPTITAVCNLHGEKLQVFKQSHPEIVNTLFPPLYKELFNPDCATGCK

[2] = target: D(2) dopamine receptor (Homo sapiens, UniProt P14416); experiment: Displacement of [3H]7-OH-DPAT from human recombinant dopamine D2S receptor at 10 uM after 60 mins by scintillation counting analysis relative to control
[3] = target: T2, 5-hydroxytryptamine receptor 2A (Homo sapiens, UniProt P28223); experiment: Displacement of [3H]ketanserin human recombinant 5-HT2A receptor at 10 uM after 60 mins by scintillation counting analysis relative to control
[4] = target: 5-hydroxytryptamine receptor 5A (Homo sapiens, UniProt P47898); experiment: Displacement of [3H]LSD from human recombinant 5-HT5a receptor at 10 uM after 120 mins by scintillation counting analysis relative to control
[5] = target: Vasoactive intestinal polypeptide receptor 1 (Homo sapiens) (UniProt P32241); experiment: Displacement of [125I]VIP from human recombinant VPAC1 receptor at 10 uM after 60 mins by scintillation counting analysis relative to control
[6] = species: Homo sapiens; experiment: Binding affinity to GABA-gated chloride channel (unknown origin) at 10 uM by antagonist radioligand binding assay relative to control
[7] = target: B2 bradykinin receptor (Homo sapiens) (UniProt P30411); experiment: Displacement of [3H]bradykinin from human recombinant B2 receptor at 1 uM after 60 mins by scintillation counting analysis relative to control
[8] = target: C-C chemokine receptor type 1 (Homo sapiens) (UniProt P32246); experiment: Displacement of [125I]MIP-1alpha from human recombinant CCR1 receptor at 1 uM after 120 mins by scintillation counting analysis relative to control
[9] = target: T3, Kappa-type opioid receptor (Homo sapiens, UniProt P41145); experiment: Displacement of [3H]U69593 from human kappa receptor at 1 uM after 60 mins by scintillation counting analysis relative to control
[10] = target: Somatostatin receptor (Mus musculus) (UniProt P30935+O08858+P30875+P30873+P49660); experiment: Displacement of [125I]Tyr11-somatostatin-14 from mouse SST receptor at 1 uM after 60 mins by scintillation counting analysis relative to control; format: protein assay
[11] = target: Adrenergic receptor alpha-2 (Rattus norvegicus, UniProt P22086+P19328+P22909); experiment: Displacement of [3H]-RX 821002 from rat alpha2 adrenoceptor after 60 mins by scintillation counting analysis; format: protein assay
[12] = target: Type-1 angiotensin II receptor (Homo sapiens, UniProt P30556); experiment: Displacement of [125I][Sar1,Ile8]-AT-II from human recombinant AT1 receptor after 120 mins by scintillation counting analysis
[13] = target: Melanocortin receptor 4 (Homo sapiens, UniProt P32245); experiment: Displacement of [125I]NDP-alpha -MSH from human recombinant MC4 receptor after 120 mins by scintillation counting analysis
[14] = target: T3, Kappa-type opioid receptor; experiment: Displacement of [3H]U69593 from human kappa receptor after 60 mins by scintillation counting analysis
[15] = target: T2, 5-hydroxytryptamine receptor 2A; experiment: Displacement of [3H]ketanserin human recombinant 5-HT2A receptor after 60 mins by scintillation counting analysis
[16] = target: 5-hydroxytryptamine receptor 3A (Homo sapiens, UniProt P46098); experiment: Displacement of [3H]BRL 43694 from human recombinant 5-HT3 receptor after 120 mins by scintillation counting analysis
[17] = Displacement of [3H]batrachotoxinin from rat brain voltage gated sodium ion channel site 2 after 60 mins by scintillation counting analysis
[18] = target: Sodium-dependent noradrenaline transporter (Homo sapiens, UniProt P23975); experiment: Displacement of [3H]nisoxetine from recombinant human norepinephrine transporter after 120 mins by scintillation counting analysis
[19] = target: Cyclin-dependent kinase 5/CDK5 activator 1 (Homo sapiens) (UniProt Q00535+Q15078); experiment: Inhibition of recombinant full length His-tagged human CDK5/p35 expressed in baculovirus expression system at 10 uM in presence of ATP relative to control
[20] = target: Dual specificity protein kinase CLK2 (Homo sapiens) (UniProt P49760); experiment: Inhibition of recombinant GST-tagged human CLK2 catalytic domain (137 to 498 residues) expressed in baculovirus expression system at 10 uM in presence of ATP relative to control
[21] = target: Mitogen-activated protein kinase 3 (Homo sapiens) (UniProt P27361); experiment: Inhibition of recombinant full length GST-tagged human ERK1 expressed in Escherichia coli at 10 uM in presence of ATP relative to control
[22] = target: T4, Cytochrome P450 2C8 (Homo sapiens, UniProt P10632); experiment: Inhibition of CYP2C8 (unknown origin); format: ADME
T4 sequence (P10632 whole entry): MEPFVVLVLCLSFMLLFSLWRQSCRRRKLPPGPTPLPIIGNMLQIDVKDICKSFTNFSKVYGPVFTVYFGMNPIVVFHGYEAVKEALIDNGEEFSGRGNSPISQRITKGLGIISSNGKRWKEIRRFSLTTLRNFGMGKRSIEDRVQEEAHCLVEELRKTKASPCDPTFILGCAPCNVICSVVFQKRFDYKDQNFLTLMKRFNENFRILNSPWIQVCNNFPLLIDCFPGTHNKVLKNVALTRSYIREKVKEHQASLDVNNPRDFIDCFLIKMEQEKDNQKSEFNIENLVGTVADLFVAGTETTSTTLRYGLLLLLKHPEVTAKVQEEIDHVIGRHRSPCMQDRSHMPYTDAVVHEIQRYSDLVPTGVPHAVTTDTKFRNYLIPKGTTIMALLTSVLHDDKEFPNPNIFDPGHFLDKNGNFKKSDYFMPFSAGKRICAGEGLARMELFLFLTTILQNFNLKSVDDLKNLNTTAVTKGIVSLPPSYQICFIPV

[23] = AUC (0 to infinity) in Sprague-Dawley rat at 5 mg/kg, po; format: ADME, organism-based; design: dose 5 mg/kg, route oral, time infinity; details: in vivo
[24] = Terminal half life in Sprague-Dawley rat at 5 mg/kg, po; format: ADME, organism-based; details: in vivo, read-out: beta t1/2 (converted)
[25] = Oral bioavailability in Sprague-Dawley rat at 5 mg/kg; format: ADME, organism-based; details: in vivo

T3 sequence (P41145 whole entry): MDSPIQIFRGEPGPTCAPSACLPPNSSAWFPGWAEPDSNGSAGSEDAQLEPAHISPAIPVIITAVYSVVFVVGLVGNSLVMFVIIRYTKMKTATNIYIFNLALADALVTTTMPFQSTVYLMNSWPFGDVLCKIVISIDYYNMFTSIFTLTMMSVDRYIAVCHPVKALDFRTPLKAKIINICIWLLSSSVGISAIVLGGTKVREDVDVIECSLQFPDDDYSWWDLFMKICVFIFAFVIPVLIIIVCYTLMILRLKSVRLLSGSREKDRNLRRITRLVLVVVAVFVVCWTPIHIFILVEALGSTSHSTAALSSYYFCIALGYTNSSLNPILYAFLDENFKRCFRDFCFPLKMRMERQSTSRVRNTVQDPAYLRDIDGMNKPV
T2 sequence (P28223 whole entry): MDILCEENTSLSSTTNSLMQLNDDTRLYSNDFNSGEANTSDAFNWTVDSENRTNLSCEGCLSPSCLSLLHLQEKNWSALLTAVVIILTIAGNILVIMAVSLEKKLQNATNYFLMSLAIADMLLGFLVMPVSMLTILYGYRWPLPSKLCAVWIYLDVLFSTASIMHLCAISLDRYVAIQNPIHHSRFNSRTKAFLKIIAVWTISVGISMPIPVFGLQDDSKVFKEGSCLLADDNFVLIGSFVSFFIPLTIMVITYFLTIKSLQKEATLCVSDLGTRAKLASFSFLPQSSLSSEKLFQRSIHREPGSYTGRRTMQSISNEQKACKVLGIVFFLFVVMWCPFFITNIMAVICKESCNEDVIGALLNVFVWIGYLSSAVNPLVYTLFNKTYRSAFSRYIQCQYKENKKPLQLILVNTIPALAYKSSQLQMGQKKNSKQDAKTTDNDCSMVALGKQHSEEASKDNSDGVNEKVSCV
Chain of Somatostatin receptor (Mus musculus) (P30935 whole entry): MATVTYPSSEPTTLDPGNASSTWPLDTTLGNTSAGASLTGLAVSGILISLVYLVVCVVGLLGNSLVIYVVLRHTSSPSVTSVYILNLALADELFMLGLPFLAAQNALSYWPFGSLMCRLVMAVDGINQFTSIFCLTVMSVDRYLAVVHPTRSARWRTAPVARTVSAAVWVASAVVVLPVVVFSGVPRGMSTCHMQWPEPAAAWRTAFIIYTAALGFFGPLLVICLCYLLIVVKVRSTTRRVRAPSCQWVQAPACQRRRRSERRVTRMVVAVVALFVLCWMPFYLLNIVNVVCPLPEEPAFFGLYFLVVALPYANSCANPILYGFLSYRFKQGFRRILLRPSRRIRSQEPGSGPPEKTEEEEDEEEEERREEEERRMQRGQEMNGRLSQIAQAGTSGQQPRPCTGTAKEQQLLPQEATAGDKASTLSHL
Chain of Somatostatin receptor (Mus musculus) (O08858 whole entry): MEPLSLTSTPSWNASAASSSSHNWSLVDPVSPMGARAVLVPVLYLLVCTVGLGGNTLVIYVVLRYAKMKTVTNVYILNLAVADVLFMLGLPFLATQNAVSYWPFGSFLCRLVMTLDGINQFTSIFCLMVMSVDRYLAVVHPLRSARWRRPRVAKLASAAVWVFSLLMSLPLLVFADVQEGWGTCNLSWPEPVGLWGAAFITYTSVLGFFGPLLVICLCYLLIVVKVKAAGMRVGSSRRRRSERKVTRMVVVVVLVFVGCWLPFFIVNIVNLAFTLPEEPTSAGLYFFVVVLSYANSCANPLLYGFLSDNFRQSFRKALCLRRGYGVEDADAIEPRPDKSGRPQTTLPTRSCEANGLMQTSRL
Chain of Somatostatin receptor (Mus musculus) (P30875 whole entry): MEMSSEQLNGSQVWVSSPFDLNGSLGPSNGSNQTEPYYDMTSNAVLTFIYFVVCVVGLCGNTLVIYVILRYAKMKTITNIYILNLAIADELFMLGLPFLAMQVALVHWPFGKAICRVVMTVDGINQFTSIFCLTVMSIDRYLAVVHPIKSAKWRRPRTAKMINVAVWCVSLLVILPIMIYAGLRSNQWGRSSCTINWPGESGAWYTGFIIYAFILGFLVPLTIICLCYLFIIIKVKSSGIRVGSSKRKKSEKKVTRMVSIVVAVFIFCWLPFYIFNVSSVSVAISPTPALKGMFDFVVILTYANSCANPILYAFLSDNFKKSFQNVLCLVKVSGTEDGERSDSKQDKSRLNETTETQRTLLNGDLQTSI
Chain of Somatostatin receptor (Mus musculus) (P30873 whole entry): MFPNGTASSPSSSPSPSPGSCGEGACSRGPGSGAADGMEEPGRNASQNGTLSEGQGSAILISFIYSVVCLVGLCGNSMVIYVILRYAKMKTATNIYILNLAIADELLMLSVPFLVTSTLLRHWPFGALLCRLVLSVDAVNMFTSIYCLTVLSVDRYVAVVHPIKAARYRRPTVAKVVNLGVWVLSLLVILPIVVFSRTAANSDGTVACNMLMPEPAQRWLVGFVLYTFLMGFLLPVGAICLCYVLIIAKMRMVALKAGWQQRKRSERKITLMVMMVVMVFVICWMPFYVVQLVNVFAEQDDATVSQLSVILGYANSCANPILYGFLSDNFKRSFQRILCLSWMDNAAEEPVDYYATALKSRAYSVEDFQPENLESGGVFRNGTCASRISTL
Chain of Somatostatin receptor (Mus musculus) (P49660 with tags, fused parts or gaps): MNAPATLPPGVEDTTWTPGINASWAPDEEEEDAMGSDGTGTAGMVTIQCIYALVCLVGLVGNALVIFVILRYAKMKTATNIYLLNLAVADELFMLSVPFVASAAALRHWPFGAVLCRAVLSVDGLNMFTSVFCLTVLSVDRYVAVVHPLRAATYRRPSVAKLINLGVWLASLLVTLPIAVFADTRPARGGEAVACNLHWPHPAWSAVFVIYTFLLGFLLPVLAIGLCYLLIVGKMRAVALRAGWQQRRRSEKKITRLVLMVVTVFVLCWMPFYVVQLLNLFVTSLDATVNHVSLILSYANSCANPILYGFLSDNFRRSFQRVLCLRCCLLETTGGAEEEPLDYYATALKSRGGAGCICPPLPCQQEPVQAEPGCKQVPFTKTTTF
Chain of Type-1 angiotensin II receptor (P30556 whole entry): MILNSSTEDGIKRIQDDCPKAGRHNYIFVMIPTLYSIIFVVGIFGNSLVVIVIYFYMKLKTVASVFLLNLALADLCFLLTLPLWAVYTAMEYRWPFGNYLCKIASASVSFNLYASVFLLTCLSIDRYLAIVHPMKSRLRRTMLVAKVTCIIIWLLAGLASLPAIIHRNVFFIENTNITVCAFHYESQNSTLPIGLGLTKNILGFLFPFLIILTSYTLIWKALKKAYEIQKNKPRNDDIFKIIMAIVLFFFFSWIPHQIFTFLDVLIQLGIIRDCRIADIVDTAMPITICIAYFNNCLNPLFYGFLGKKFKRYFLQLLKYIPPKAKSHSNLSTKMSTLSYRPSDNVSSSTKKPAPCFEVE
Chain of 5-hydroxytryptamine receptor 5A (P47898 whole entry): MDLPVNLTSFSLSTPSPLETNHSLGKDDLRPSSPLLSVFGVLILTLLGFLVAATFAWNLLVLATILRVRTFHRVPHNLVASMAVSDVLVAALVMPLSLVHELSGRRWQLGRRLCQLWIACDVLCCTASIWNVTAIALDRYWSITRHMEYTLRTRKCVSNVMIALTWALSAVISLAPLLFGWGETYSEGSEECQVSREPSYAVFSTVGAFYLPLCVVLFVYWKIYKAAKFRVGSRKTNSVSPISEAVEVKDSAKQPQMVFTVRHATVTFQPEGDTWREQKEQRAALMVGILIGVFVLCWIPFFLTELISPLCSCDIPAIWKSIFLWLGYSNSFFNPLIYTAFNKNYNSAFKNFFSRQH
Chain of 5-hydroxytryptamine receptor 3A (P46098 whole entry): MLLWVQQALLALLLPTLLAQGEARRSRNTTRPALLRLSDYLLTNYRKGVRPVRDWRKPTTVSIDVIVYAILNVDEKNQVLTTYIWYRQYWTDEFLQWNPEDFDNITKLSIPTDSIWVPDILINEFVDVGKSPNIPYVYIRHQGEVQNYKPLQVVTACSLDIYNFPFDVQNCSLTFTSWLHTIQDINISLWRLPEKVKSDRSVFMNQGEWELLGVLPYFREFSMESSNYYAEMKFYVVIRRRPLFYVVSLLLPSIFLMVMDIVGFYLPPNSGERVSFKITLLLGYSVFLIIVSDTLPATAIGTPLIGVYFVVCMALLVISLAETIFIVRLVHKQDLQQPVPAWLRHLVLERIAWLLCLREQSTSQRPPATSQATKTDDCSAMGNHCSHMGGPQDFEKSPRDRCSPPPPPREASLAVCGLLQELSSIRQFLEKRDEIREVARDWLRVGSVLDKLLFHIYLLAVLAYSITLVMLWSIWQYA
Chain of Vasoactive intestinal polypeptide receptor 1 (Homo sapiens) (P32241 whole entry): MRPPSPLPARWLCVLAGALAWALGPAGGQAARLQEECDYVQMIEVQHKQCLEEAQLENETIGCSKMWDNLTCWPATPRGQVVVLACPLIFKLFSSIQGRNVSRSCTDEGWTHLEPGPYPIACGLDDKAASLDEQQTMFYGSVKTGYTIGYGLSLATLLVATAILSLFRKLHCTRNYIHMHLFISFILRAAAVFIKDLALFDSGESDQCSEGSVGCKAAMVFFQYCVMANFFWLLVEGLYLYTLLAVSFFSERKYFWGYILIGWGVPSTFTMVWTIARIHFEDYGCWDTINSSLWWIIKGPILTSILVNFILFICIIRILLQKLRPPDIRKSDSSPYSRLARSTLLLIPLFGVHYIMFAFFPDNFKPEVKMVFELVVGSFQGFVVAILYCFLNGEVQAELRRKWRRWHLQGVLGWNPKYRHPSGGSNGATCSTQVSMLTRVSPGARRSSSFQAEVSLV
Chain of Mitogen-activated protein kinase 3 (Homo sapiens) (P27361 whole entry): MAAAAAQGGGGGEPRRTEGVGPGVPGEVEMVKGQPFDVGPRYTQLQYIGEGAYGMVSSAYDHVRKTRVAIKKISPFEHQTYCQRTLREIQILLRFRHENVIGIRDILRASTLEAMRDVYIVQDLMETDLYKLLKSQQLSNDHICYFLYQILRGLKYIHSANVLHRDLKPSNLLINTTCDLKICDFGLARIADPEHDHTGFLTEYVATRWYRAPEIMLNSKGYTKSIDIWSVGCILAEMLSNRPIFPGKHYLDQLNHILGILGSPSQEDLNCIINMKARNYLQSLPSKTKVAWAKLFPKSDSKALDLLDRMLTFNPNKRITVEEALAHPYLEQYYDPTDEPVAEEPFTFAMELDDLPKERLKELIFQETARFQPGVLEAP

**Q.** Which results are given for `CC(C)(C)NS(=O)(=O)c1ccc(-c2sc(C(=O)N[C@H]3C[C@H](C(=O)O)C3)nc2CC2CCCCC2)c2ccccc12`?
**A.** pIC50 [1]: 6.79; inhibition [2]: 19%; inhibition [3]: < 10%; inhibition [4]: 85%; inhibition [5]: < 10%; inhibition [6]: 86%; inhibition [7]: < 10%; inhibition [8]: < 10%; inhibition [9]: < 10%; inhibition [10]: < 10%; IC50 [11]: 43 nM; pIC50 [12]: 9.33; pIC50 [13]: 9.68; pIC50 [14]: 8.96; pIC50 [15]: 9.19; pIC50 [16]: 8.31; pIC50 [17]: 5.19; pIC50 [18]: 8.47; inhibition [19]: -4%; inhibition [20]: -1%; inhibition [21]: -7%; INH [22]: 3.8 µM; AUC(0-inf) [23]: 328 ng·h/mL; half-life [24]: 2.1 h; bioavailability [25]: 20%
